Patent US20070179810A1, “Controls for antimicrobial use and infection” (priority 2006, published 2007)

What was measured:
Klebsiella pneumoniae = experiment: Susceptibility of hospital Klebsiella pneumoniae isolates (annual antibiogram); assay type: cell-based; conditions: for Change in susceptibility of Klebsiella pneumoniae: 218 isolates, 2000 vs 2002 and 2003, T test; for Percent Susceptible in 2000 / Percent Susceptible in 2002 / Percent Susceptible in 2003: K. pneumoniae isolates; for Percent Susceptible in 2000: 2000, year prior to program; for Percent Susceptible in 2002 / Percent Susceptible in 2003: * = statistically significant change compared to 2000
Excerpt: (§1) The Microbiology Department collected data on the susceptibility of major pathogens and published an annual antibiograrn, a copy of which was placed in each hospital chart as well as sent to all physicians. […] T tests were used in determining statistical significance between the years.

[1] = tested on: non-urinary Pseuclomonas aeruginosa; experiment: Susceptibility of non-urinary Pseudomonas aeruginosa isolates (annual antibiogram); assay type: cell-based; conditions: 338 isolates; 2000 vs 2002 and 2003
Excerpt: as §1

non-urinary E. coli = experiment: Susceptibility of non-urinary E. coli isolates (annual antibiogram); assay type: cell-based; conditions: 548 isolates
Excerpt: as §1

Serratia marcescens = experiment: Susceptibility of Serratia marcescens isolates (annual antibiogram); assay type: cell-based; conditions: 109 isolates; 2000 vs 2002 and 2003
Excerpt: as §1

Proteus mirahilis = experiment: Susceptibility of Proteus mirabilis isolates (annual antibiogram); assay type: cell-based; conditions: 133 isolates; 2000 vs 2002 and 2003
Excerpt: as §1

urinary E. coli = experiment: Susceptibility of urinary E. coli isolates (annual antibiogram); assay type: cell-based; conditions: 1615 isolates
Excerpt: as §1

Enterobucter cloucue = experiment: Susceptibility of Enterobacter cloacae isolates (annual antibiogram); assay type: cell-based; conditions: 134 isolates; 2000 vs 2002 and 2003
Excerpt: as §1

Pseudomonas aeruginosa = tested on: Pseudomonas aeruginosa
Excerpt: as §1

[2] = 2000, last year before the study

## CO/N=C(\C(=O)N[C@@H]1C(=O)N2C(C(=O)[O-])=C(C[N+]3(C)CCCC3)CS[C@H]12)c1csc(N)n1 [Cefepime]
Klebsiella pneumoniae
  Change in susceptibility of Klebsiella pneumoniae: did not reach statistical significance
  Percent Susceptible in 2000: 94%
  Percent Susceptible in 2002: 98%
  Percent Susceptible in 2003: 98%
[1]
  Change in susceptibility of non-urinary Pseudomonas aeruginosa: no statistically significant change
non-urinary E. coli; [2]
  Susceptibility of non-urinary E. coli, before: 100%
non-urinary E. coli; during the study (2002 and 2003), significant decrease
  Susceptibility of non-urinary E. coli, after: 98%
Serratia marcescens
  Change in susceptibility of Serratia marcescens: no statistically significant change
Proteus mirahilis
  Change in susceptibility of Proteus mirabilis: no statistically significant change

## CC(C)(O/N=C(\C(=O)N[C@@H]1C(=O)N2C(C(=O)[O-])=C(C[n+]3ccccc3)CS[C@H]12)c1csc(N)n1)C(=O)O [Ceftazidime]
Klebsiella pneumoniae
  Change in susceptibility of Klebsiella pneumoniae: statistically significant increase in susceptibility
  Percent Susceptible in 2000: 85%
  Percent Susceptible in 2002: 99* Percent
  Percent Susceptible in 2003: 96* Percent
[1]
  Change in susceptibility of non-urinary Pseudomonas aeruginosa: no statistically significant change
non-urinary E. coli; 2000 vs 2002 and 2003
  Change in susceptibility of non-urinary E. coli: not significant
Serratia marcescens
  Change in susceptibility of Serratia marcescens: no statistically significant change
Urinary E. coli; [2]
  Susceptibility of urinary E. coli, before: 100%
Urinary E. coli; during the study (2002 and 2003), significant fall
  Susceptibility of urinary E. coli, after: 98%
Enterobucter cloucue
  Change in susceptibility of Enterobacter cloacae: no statistically significant change
Proteus mirahilis
  Change in susceptibility of Proteus mirabilis: no statistically significant change

## CO/N=C(\C(=O)N[C@@H]1C(=O)N2C(C(=O)O)=C(CSc3nc(=O)c(=O)[nH]n3C)CS[C@H]12)c1csc(N)n1 [Ceftriaxone]
Klebsiella pneumoniae
  Change in susceptibility of Klebsiella pneumoniae: statistically significant increase in susceptibility
  Percent Susceptible in 2000: 85%
  Percent Susceptible in 2002: 98* Percent
  Percent Susceptible in 2003: 96* Percent

## CO/N=C(\C(=O)N[C@@H]1C(=O)N2C(C(=O)O)=C(COC(N)=O)CS[C@H]12)c1ccco1 [Cefuroxime]
Klebsiella pneumoniae
  Change in susceptibility of Klebsiella pneumoniae: statistically significant increase in susceptibility
  Percent Susceptible in 2000: 78%
  Percent Susceptible in 2002: 94* Percent
  Percent Susceptible in 2003: 93* Percent

## C[C@H]1COc2c(N3CCN(C)CC3)c(F)cc3c(=O)c(C(=O)O)cn1c23 [Levofloxacin]
Klebsiella pneumoniae
  Percent Susceptible in 2000: 82%
  Percent Susceptible in 2002: 99* Percent
  Percent Susceptible in 2003: 96* Percent

## NC[C@H]1O[C@H](O[C@H]2[C@H](O)[C@@H](O[C@H]3O[C@H](CO)[C@@H](O)[C@H](N)[C@H]3O)[C@H](N)C[C@@H]2N)[C@H](N)C[C@@H]1O [Tobramycin]
Klebsiella pneumoniae
  Change in susceptibility of Klebsiella pneumoniae: statistically significant increase in susceptibility
  Percent Susceptible in 2000: 90%
  Percent Susceptible in 2002: 99* Percent
  Percent Susceptible in 2003: 96%

## C[C@@H](O)[C@H]1C(=O)N2C(C(=O)O)=C(SCCN=CN)C[C@H]12 [imipenem]
Pseudomonas aeruginosa; 2000
  Pseudomonas aeruginosa susceptibility in 2000: 93%
Pseudomonas aeruginosa; 2002, significant decrease
  Pseudomonas aeruginosa susceptibility in 2002: 83%
Pseudomonas aeruginosa; 2003
  Pseudomonas aeruginosa susceptibility in 2003: 91%

## Gentamicin
Klebsiella pneumoniae
  Change in susceptibility of Klebsiella pneumoniae: statistically significant increase in susceptibility
  Percent Susceptible in 2000: 83%
  Percent Susceptible in 2002: 99* Percent
  Percent Susceptible in 2003: 96%

## Trimethoprirn/Sulfa
Klebsiella pneumoniae
  Change in susceptibility of Klebsiella pneumoniae: statistically significant increase in susceptibility
  Percent Susceptible in 2000: 86%
  Percent Susceptible in 2002: 97* Percent
  Percent Susceptible in 2003: 93%
